The values below come from PubChem BioAssay AID2060484 (Molecular Pharmacology Branch, DTP, NCI, 2025).

This test concerns SUM149PT spheroids with HUVEC/MSC, viability. The experiment in a line: Anticancer human tumor SUM149PT cell line growth inhibition [GQUAD].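 As to all read-outs here: spheroids exposed to drugs for seven days before readout.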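 As to viability, T/C: percent viability relative to DMSO vehicle control taken as 100%.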 The following applies: for viability, T/C: stronger effect = lower value. The text has this: DNA G-quadruplex Stabilizer Agents in Combinations in Complex Spheroids
A high-throughput screen of multi-cell type tumor spheroids was designed to identify active combinations of DNA G-quadruplex stabilizer agents and targeted small molecules. Complex spheroids include a stromal component modeled by human endothelial cells (HUVEC) and fibroblasts modeled by human mesenchymal stem cells (MSCs). The concentration ranges selected for each drug and investigational agent were based upon clinically achievable concentrations if the clinical Cmax of the agent was known.
Compounds. The drugs and investigational agents: pidnarulex (CX-5461; NSC782164), APTO-253 (NSC789042), BRACO-19 (NSC847499), peposertib (NSC802822), ceralasertib (NSC780249), elimusertib (NSC800525), camonsertib (NSC841442), AZD-1390 (NSC803789), olaparib (NSC753686), talazoparib (NSC767125), ART-558 (NSC835418), sotorasib (NSC818433), MRTX-1133 (NSC836407), SN-38 (NSC673596), topotecan (NSC609699), etoposide (NSC141540), doxorubicin (NSC123127), gemcitabine (NSC613327), 5-fluorouracil (NSC19893), paclitaxel (NSC125973), vemurafenib (NSC761431), panobinostat (NSC761190), R-306465 (JNJ-16241199; NSC773264), adavosertib (NSC754352), TP-3654 (NSC805149), carboplatin (NSC241240), KSQ-4279 (NSC840948), and staurosporine (NSC755774) were obtained from the National Cancer Institute (NCI) Developmental Therapeutics Program Chemical Repository (34). The FDA-approved anticancer drug set is available from the NCI Developmental Therapeutics Program. […] The stock solutions were prepared in dimethyl sulfoxide (DMSO, Sigma-Aldrich, St. Louis, MO, cat. D2650) at 800-fold the tested concentration and stored at -70 degrees C prior to their use. All drugs and investigational agents were tested over a range starting from a high concentration at or near the clinical Cmax and decreasing in half-log increments. If the clinical Cmax for an agent had not been determined, the highest concentration tested was 10 microM.
2.3 Cell Culture. All cells were maintained in an incubator at 37 degrees C and 5% CO2 with 95% humidity. The PDC lines were cultured according to standard operating procedures established by the NCI PDMR. All PDCs were thawed and cultured in Matrigel-coated flasks prepared with a working solution of 1X Ham's F-12 nutrient mix, without supplementation (Invitrogen, cat. 11765054), 100 U/mL penicillin-streptomycin (Invitrogen, cat. 15140122), and 2.5% Matrigel (Corning Inc., cat. 354248) for the first three passages. The 857933-349-R-J2-PDC line was cultured in 6C/Colon 1B media, which includes advanced DMEM/F-12 (Thermo Fisher Scientific, cat. 12634028), 10 mM HEPES (Thermo Fisher Scientific, cat. 15630080), 1X GlutaMAX supplement (Thermo Fisher Scientific, cat. 35050061), 0.1 mg/mL primocin (InvivoGen, cat. ant-pm-2), 10% defined fetal bovine serum, heat inactivated (HyClone Laboratories Inc., cat. SH30070.03HI), 50% L-WRN conditioned media (ATCC, cat. CRL-3276), 1.25 mM N-Acetyl-L-cysteine (Sigma-Aldrich, cat. A9165), 10 mM nicotinamide (Sigma-Aldrich, cat. N0636), 1X B-27 supplement (Thermo Fisher Scientific, cat. 17504044), 1X N-2 supplement (Thermo Fisher Scientific, cat. 17502048), 10 microM Y-27632 dihydrochloride (Tocris Bioscience, cat. 1254), and 50 ng/mL human EGF recombinant protein (Thermo Fisher Scientific, cat. PHG0311). The 485176-168-R4-J1-PDC line was cultured in Panc media, which includes all 6C/Colon 1B media components plus 100 ng/mL human FGF-10 (Thermo Fisher Scientific, cat. 100-26), 500 nM SB-431542 (Selleckchem, cat. S1067), and gastrin (Tocris, cat. 3006).
[…]

Values joined by “and” are separate entries in the source; they are usually repeats but may differ in a detail not shown here. Identical values can stand only once.

`COc1ccc([C@@H](O)c2cc(-c3ncnc4cc(N5CCOCC5)ccc34)c(F)cc2Cl)nn1`: the viability, T/C by setting is: (compound 0.0316 µM) 91.9% and 96.4% and 101%; (compound 0.1 µM) 89.4% and 85.8% and 88.5%; (compound 0.316 µM) 82.2% and 83.3% and 78.4%; (compound 1 µM) 55.6% and 57.7% and 45%; (compound 3.16 µM) 35% and 38.2% and 27.2%; (compound 10 µM) 22.3% and 28.1% and 20.7%. Also, the half-maximal inhibitory concentration (IC50) (curve of compound) was 1.42 µM and 1.62 µM and 0.867 µM.
Regarding `CC1COCCN1c1cc(C2(S(C)(=N)=O)CC2)nc(-c2ccnc3[nH]ccc23)n1` (centres undefined) + Cc1cnc(CNC(=O)c2c(=O)c3ccc(N4CCCN(C)CC4)nc3n3c2sc2ccccc23)cn1, the concentration for half-maximal inhibition (IC50) is 0.249 µM (curve of first compound, second compound 0.0316 µM); 0.164 µM (curve of first compound, second compound 0.1 µM); 0.0979 µM (curve of first compound, second compound 0.316 µM); under 0.0316 µM (curve of first compound, second compound 1 µM); under 0.0316 µM (curve of first compound, second compound 3.16 µM); under 0.0316 µM (curve of first compound, second compound 10 µM). Moreover, the viability, T/C was 87% (second compound 0.0316 µM, first compound 0.0316 µM); 71.1% (second compound 0.0316 µM, first compound 0.1 µM); 44.9% (second compound 0.0316 µM, first compound 0.316 µM); 25.8% (second compound 0.0316 µM, first compound 1 µM); 31.5% (second compound 0.0316 µM, first compound 3.16 µM); 17.7% (second compound 0.0316 µM, first compound 10 µM). The viability, T/C runs as follows: (second compound 0.1 µM, first compound 0.0316 µM) 59.8%; (second compound 0.1 µM, first compound 0.1 µM) 57.9%; (second compound 0.1 µM, first compound 0.316 µM) 38.6%; (second compound 0.1 µM, first compound 1 µM) 23.7%; (second compound 0.1 µM, first compound 3.16 µM) 36%; (second compound 0.1 µM, first compound 10 µM) 17.9%. Moreover, the viability, T/C is 57.3% (second compound 0.316 µM, first compound 0.0316 µM); 48.9% (second compound 0.316 µM, first compound 0.1 µM); 41.4% (second compound 0.316 µM, first compound 0.316 µM); 27.2% (second compound 0.316 µM, first compound 1 µM); 29.2% (second compound 0.316 µM, first compound 3.16 µM); 22.5% (second compound 0.316 µM, first compound 10 µM). Further, the viability, T/C by setting is: (second compound 1 µM, first compound 0.0316 µM) 45.9%; (second compound 1 µM, first compound 0.1 µM) 46%; (second compound 1 µM, first compound 0.316 µM) 42.9%; (second compound 1 µM, first compound 1 µM) 31.8%; (second compound 1 µM, first compound 3.16 µM) 37.1%; (second compound 1 µM, first compound 10 µM) 21.3%. The viability, T/C is 36.9% (second compound 3.16 µM, first compound 0.0316 µM); 37.7% (second compound 3.16 µM, first compound 0.1 µM); 36.2% (second compound 3.16 µM, first compound 0.316 µM); 31.1% (second compound 3.16 µM, first compound 1 µM); 33.7% (second compound 3.16 µM, first compound 3.16 µM); 20.4% (second compound 3.16 µM, first compound 10 µM). Besides, the viability, T/C is 0.72% (second compound 10 µM, first compound 0.0316 µM); 0.21% (second compound 10 µM, first compound 0.1 µM); 0.33% (second compound 10 µM, first compound 0.316 µM); 0.28% (second compound 10 µM, first compound 1 µM); 0.77% (second compound 10 µM, first compound 3.16 µM); 1.29% (second compound 10 µM, first compound 10 µM).
For the compound `CCc1c2c(nc3ccc(O)cc13)-c1cc3c(c(=O)n1C2)COC(=O)[C@]3(O)CC`, the viability, T/C reads like this: (compound 0.000999 µM) 65.9% and 72.5% and 67.1%; (compound 0.00316 µM) 36% and 43.4% and 27.6%; (compound 0.00999 µM) 44% and 61.2% and 38.6%; (compound 0.0316 µM) 36% and 47.2% and 30.2%; (compound 0.0999 µM) 27% and 38.1% and 23.1%; (compound 0.316 µM) 16.4% and 21.9% and 12.8%.
As for `Cc1[nH]c2ccccc2c1CCNCc1ccc(/C=C/C(=O)NO)cc1`, the viability, T/C runs as follows: (compound 0.000999 µM) 104% and 108% and 97.7%; (compound 0.00316 µM) 106% and 89.7% and 105%; (compound 0.00999 µM) 90.3% and 107% and 101%; (compound 0.0316 µM) 94.4% and 97.2% and 110%; (compound 0.0999 µM) 92.1% and 91.4% and 106%; (compound 0.316 µM) 41.8% and 37.1% and 34.2%. Further, under “curve of compound”, the half-maximal inhibitory concentration (IC50) was 0.264 µM and 0.241 µM and 0.244 µM.
`Cc1cccc(N(C)C(=O)C2C(O)CCN2c2nc(C)cc(C(F)(F)F)c2C#N)c1` (centres undefined): the viability, T/C by setting is: (compound 0.0316 µM) 104% and 99.7% and 111%; (compound 0.1 µM) 97.8% and 92.2% and 88.8%; (compound 0.316 µM) 82.7% and 99.5% and 103%; (compound 1 µM) 89% and 97.5% and 98.3%; (compound 3.16 µM) 102% and 110% and 105%; (compound 10 µM) 103% and 108% and 100%. Where the note is “curve of compound”, the half-inhibitory concentration (IC50) is over 10 µM.

What is called viability, T/C is the result in the treated group divided by that in the control group, in per cent. Usually IC50 stands for the concentration needed to halve the response being measured.
